# Target: T1, PD-1/PD-L1 interaction (Homo sapiens, UniProt Q9NZQ7)
# T1 construct: Tag1 or Tag2 (undisclosed kit tag); purchased CisBio 63ADK000CPAPEG
# Experiment: PD-1/PD-L1 Homogenous Time-Resolved Fluorescence (HTRF) binding assay
# Settings: Biochemical PD1/PD-L1 inhibition
# Procedure: PD-L1 Enzyme Assay: Homogenous Time-Resolved Fluorescence (HTRF) Binding Assay
# All binding studies were performed using PD-1/PD-L1 Binding Assay Kit from CisBio (Catalog #63ADK000CPAPEG), according to the manufacturer's protocol. The interaction between Tag1-PD-1 and […] was detected by anti-Tag1-Eu^3+ (HTRF donor) and anti-Tag2-XL665 (HTRF acceptor). When the donor and acceptor antibodies were brought to close proximity due to PD-1 and PD-L1 binding, excitation of the donor antibody triggered fluorescent resonance energy transfer (FRET) towards the acceptor antibody, which in turn emitted specifically at 665 nm. This specific signal is positively proportional to PD-1/PD-L1 interaction. The compounds blocking PD-1/PD-L1 interaction will cause a reduction in HTRF signal. The necessary reagents were mixed in the following order: 2 μl compounds (or diluents buffer), 4 μl PD-L1 protein, 4 μl PD-1 protein. After an incubation of 15 minutes, 5 μl of anti-Tag1-Eu^3+ and 5 μl of anti-Tag2-XL665 were added. The plate was sealed and incubated at RT for 1 h. The fluorescence emission was read at two different wavelengths (665 nm and 620 nm) on a BMG PheraStar® multiplate reader. Results were calculated from the 665 nm and 620 nm fluorescence signal and expressed in HTRF ratio=(665 nm/620 nm)×[…].
# T1 sequence (Q9NZQ7 19-238 limits assumed): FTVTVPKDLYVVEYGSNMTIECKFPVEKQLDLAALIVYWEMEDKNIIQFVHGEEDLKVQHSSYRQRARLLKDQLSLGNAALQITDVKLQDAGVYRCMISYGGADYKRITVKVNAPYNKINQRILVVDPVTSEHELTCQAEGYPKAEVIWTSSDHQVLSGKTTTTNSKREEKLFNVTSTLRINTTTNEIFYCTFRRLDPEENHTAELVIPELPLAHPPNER
row,Structure (SMILES),IC50 [nM]
1,COc1nc(OCc2cccc(-c3ccccc3)c2C)ncc1CN1CCC[C@@H]2C[C@@]21C(=O)O (racemic) [Compound 48],> 500
2,"COc1nc(OCc2cccc(-c3ccc(F)cc3)c2C)ncc1CNCCNC(C)=O [Compound 1, N-(2-(((2-((4′-fluoro-2-methyl-[1,1′-biphenyl]-3-yl)methoxy)-4-methoxypyrimidin-5-yl)methyl)amino)ethyl)acetamide]",> 500
3,"CCOc1nc(OCc2cccc(-c3ccccc3)c2C)ncc1CN(C)CC(=O)O [Compound 2, N-((4-ethoxy-2-((2-methyl-[1,1′-biphenyl]-3-yl)methoxy)pyrimidin-5-yl)methyl)-N-methyl glycine]",> 500
4,"Cc1c(COc2ncc(CN3CCCC[C@H]3C(=O)O)c(OCc3ccc(F)c(C#N)c3)n2)cccc1-c1ccccc1 [Compound 8, (S)-1-((4-((3-cyano-4-fluorobenzyl)oxy)-2-((2-methyl-[1,1′-biphenyl]-3-yl)methoxy)pyrimidin-5-yl)methyl)piperidine-2-carboxylic acid]",> 500
5,"Cc1c(COc2ncc(CN3CCCC[C@H]3C(=O)O)c(OCC(F)(F)F)n2)cccc1-c1ccccc1 [Compound 9, (S)-1-((2-((2-methyl-[1,1′-biphenyl]-3-yl)methoxy)-4-(2,2,2-trifluoroethoxy)pyrimidin-5-yl)methyl)piperidine-2-carboxylic acid]",> 500
6,"Cc1c(COc2ncc(CN3CCCC[C@H]3C(=O)O)c(OCCCCO)n2)cccc1-c1ccccc1 [Compound 10, (S)-1-((4-(4-hydroxybutoxy)-2-((2-methyl-[1,1′-biphenyl]-3-yl)methoxy)pyrimidin-5-yl)methyl)piperidine-2-carboxylic acid]",100 to 500
7,"Cc1c(COc2ncc(CN3CCCC[C@H]3C(=O)O)c(OCc3cncc(C#N)c3)n2)cccc1-c1ccccc1 [Compound 12, (S)-1-((4-((5-cyanopyridin-3-yl)methoxy)-2-((2-methyl-[1,1′-biphenyl]-3-yl)methoxy)pyrimidin-5-yl)methyl)piperidine-2-carboxylic acid]",> 500
8,"COc1nc(OCc2cccc(-c3ccc(F)cc3)c2C)ncc1CN1CCCC[C@H]1C(=O)O [Compound 16, (S)-1-((2-((4′-fluoro-2-methyl-[1,1′-biphenyl]-3-yl)methoxy)-4-methoxypyrimidin-5-yl)methyl)piperidine-2-carboxylic acid]",> 500
9,"COc1nc(OCc2cccc(-c3ccccc3F)c2C)ncc1CNCCNC(C)=O [Compound 20, N-(2-(((2-((2′-fluoro-2-methyl-[1,1′-biphenyl]-3-yl)methoxy)-4-methoxypyrimidin-5-yl)methyl)amino)ethyl)acetamide]",> 500
10,"CCOc1nc(OCc2cccc(-c3ccccc3)c2C)ncc1CNCCNC(C)=O [Compound 21, N-(2-(((4-ethoxy-2-((2-methyl-[1,1′-biphenyl]-3-yl)methoxy)pyrimidin-5-yl)methyl)amino)ethyl)acetamide]",> 500
11,CCOc1nc(OCc2cccc(-c3ccccc3)c2C)ncc1CNCCC(=O)O [Compound 24],> 500
12,"CCOc1nc(OCc2cccc(-c3ccccc3)c2C)ncc1CN[C@@H](C)CC(=O)O [Compound 27, (S)-3-(((4-ethoxy-2-((2-methyl-[1,1′-biphenyl]-3-yl)methoxy)pyrimidin-5-yl)methyl)amino)butanoic acid]",> 500
13,"CCOc1nc(OCc2cccc(-c3ccccc3)c2C)ncc1CNC(CC(N)=O)C(=O)O (centres unmarked) [Compound 29, ((4-ethoxy-2-((2-methyl-[1,1′-biphenyl]-3-yl)methoxy)pyrimidin-5-yl)methyl)asparagine]",100 to 500
14,"CCOc1nc(OCc2cccc(-c3ccccc3)c2C)ncc1CN1CCC1C(=O)O (centres unmarked) [Compound 31, 1-((4-ethoxy-2-((2-methyl-[1,1′-biphenyl]-3-yl)methoxy)pyrimidin-5-yl)methyl)azetidine-2-carboxylic acid]",100 to 500
15,"CC(=O)NCCNCc1cnc(OCc2cccc(-c3ccccc3)c2C)nc1OCc1ccccc1 [Compound 32, N-(2-(((4-(benzyloxy)-2-((2-methyl-[1,1′-biphenyl]-3-yl)methoxy)pyrimidin-5-yl)methyl)amino)ethyl)acetamide]",> 500

# Other lines, results leading:
row,IC50 [nM],Structure (SMILES)
1,< 100,"COc1nc(OCc2cccc(-c3ccccc3)c2C)nc(OC)c1CN1CCCC2C[C@]21C(=O)O (single isomer, unassigned) [Compound 4]"
2,100 to 500,"COc1nc(OCc2cccc(-c3ccccc3)c2C)nc(OC)c1CN1CCC[C@@H]2C[C@@]21C(=O)O (single isomer, unassigned) [Compound 5]"
3,100 to 500,"CCOc1nc(OCc2cccc(-c3ccccc3)c2C)ncc1CN1C[C@H](O)CC1C(=O)O (stereo in doubt) [Compound 30, (2R,4R)-1-((4-ethoxy-2-((2-methyl-[1,1′-biphenyl]-3-yl)methoxy)pyrimidin-5-yl)methyl)-4-hydroxypyrrolidine-2-carboxylic acid]"
4,< 100,"COc1nc(OCc2cccc(-c3ccccc3)c2C)nc(OC)c1CNCCNC(C)=O [Compound 3, N-(2-(((4,6-dimethoxy-2-((2-methyl-[1,1′-biphenyl]-3-yl)methoxy)pyrimidin-5-yl)methyl)amino)ethyl)acetamide]"
5,100 to 500,"CCOc1nc(OCc2cccc(-c3ccccc3)c2C)nc(OCC)c1CNCCNC(C)=O [Compound 6, N-(2-(((4,6-diethoxy-2-((2-methyl-[1,1′-biphenyl]-3-yl)methoxy)pyrimidin-5-yl)methyl)amino)ethyl)acetamide]"
6,< 100,"COc1nc(OCc2cccc(-c3ccccc3)c2C)ncc1CN1CCCC[C@H]1C(=O)O [Compound 7, (S)-1-((4-methoxy-2-((2-methyl-[1,1′-biphenyl]-3-yl)methoxy)pyrimidin-5-yl)methyl)piperidine-2-carboxylic acid]"
7,< 100,"COc1nc(OCc2cccc(-c3ccc4c(c3)OCCO4)c2C)nc(OC)c1CN1C[C@H](O)C[C@H]1C(=O)O [Compound 11, (2S,4R)-1-((2-((3-(2,3-dihydrobenzo[b][1,4]dioxin-6-yl)-2-methylbenzyl)oxy)-4,6-dimethoxypyrimidin-5-yl)methyl)-4-hydroxypyrrolidine-2-carboxylic acid]"
8,100 to 500,"COc1nc(OCc2cccc(-c3cccc(OCCCN4CCC(F)(F)C4)c3C)c2C)ncc1CN1CCCC[C@H]1C(=O)O [Compound 13, (S)-1-((2-((3′-(3-(3,3-difluoropyrrolidin-1-yl)propoxy)-2,2′-dimethyl-[1,1′-biphenyl]-3-yl)methoxy)-4-methoxypyrimidin-5-yl)methyl)piperidine-2-carboxylic acid]"
9,100 to 500,"COc1nc(OCc2cccc(-c3ccccc3)c2C)ncc1CNCCNC(C)=O [Compound 14, N-(2-(((4-methoxy-2-((2-methyl-[1,1′-biphenyl]-3-yl)methoxy)pyrimidin-5-yl)methyl)amino)ethyl)acetamide]"
10,100 to 500,"COc1nc(OCc2cccc(-c3ccccc3)c2C)ncc1CN1CCCC[C@@H]1C(=O)O [Compound 15, (R)-1-((4-methoxy-2-((2-methyl-[1,1′-biphenyl]-3-yl)methoxy)pyrimidin-5-yl)methyl)piperidine-2-carboxylic acid]"
11,100 to 500,"COc1nc(OCc2cccc(-c3cccc(F)c3)c2C)ncc1CN1CCCC[C@H]1C(=O)O [Compound 17, (S)-1-((2-((3′-fluoro-2-methyl-[1,1′-biphenyl]-3-yl)methoxy)-4-methoxypyrimidin-5-yl)methyl)piperidine-2-carboxylic acid]"
12,100 to 500,"COc1nc(OCc2cccc(-c3cccc(F)c3)c2C)ncc1CNCCNC(C)=O [Compound 18, N-(2-(((2-((3′-fluoro-2-methyl-[1,1′-biphenyl]-3-yl)methoxy)-4-methoxypyrimidin-5-yl)methyl)amino)ethyl)acetamide]"
13,100 to 500,"COc1nc(OCc2cccc(-c3ccccc3F)c2C)ncc1CN1CCCC[C@H]1C(=O)O [Compound 19, (S)-1-((2-((2′-fluoro-2-methyl-[1,1′-biphenyl]-3-yl)methoxy)-4-methoxypyrimidin-5-yl)methyl)piperidine-2-carboxylic acid]"
14,100 to 500,"CCOc1nc(OCc2cccc(-c3ccccc3)c2C)ncc1CN1CCCC[C@H]1C(=O)O [Compound 22, (S)-1-((4-ethoxy-2-((2-methyl-[1,1′-biphenyl]-3-yl)methoxy)pyrimidin-5-yl)methyl)piperidine-2-carboxylic acid]"
15,100 to 500,"CCOc1nc(OCc2cccc(-c3ccccc3)c2C)ncc1CNC1(C(=O)O)CC1 [Compound 23, 1-(((4-ethoxy-2-((2-methyl-[1,1′-biphenyl]-3-yl)methoxy)pyrimidin-5-yl)methyl)amino)cyclopropane-1-carboxylic acid]"
16,< 100,"CCOc1nc(OCc2cccc(-c3ccccc3)c2C)ncc1CNC(CO)(CO)CO [Compound 25, 2-(((4-ethoxy-2-((2-methyl-[1,1′-biphenyl]-3-yl)methoxy)pyrimidin-5-yl)methyl)amino)-2-(hydroxymethyl)propane-1,3-diol]"
17,100 to 500,"CCOc1nc(OCc2cccc(-c3ccccc3)c2C)ncc1CN[C@H](C)C(=O)O [Compound 28, ((4-ethoxy-2-((2-methyl-[1,1′-biphenyl]-3-yl)methoxy)pyrimidin-5-yl)methyl)-D-alanine]"
